Results reported in ChEMBL document CHEMBL5052830, “Foxm1 inhibitor compositions and methods of using the same” (2021).
One block for each compound: values may come before it. Active and inactive are the calls of the source. No cut-off for these calls is given here.

Experiments:
[1] = Half-life in female CD-1 mouse at 60 mg/kg, sc administered as single dose and measured by LC-MS/MS analysis; assay type: ADME, organism-based; details: in vivo
[2] = Half-life in female CD-1 mouse at 40 mg/kg, sc administered as single dose and measured by LC-MS/MS analysis; assay type: ADME, organism-based; details: in vivo
DT-22 [3] = assay: Antitumor activity in human DT-22-Luc cells xenografted female NSG mouse assessed as reduction in tumor growth at 2 to 6 mg/kg, sc; assay type: functional, organism-based; details: dose 2-6 mg/kg
[4] = Toxicity in human DT-22-Luc cells xenografted female NSG mouse assessed as as effect on body weight at 2 to 6 mg/kg, sc; assay type: organism-based; details: in vivo, dose 2-6 mg/kg
[5] = molecular target: T1, Forkhead box protein M1 (Homo sapiens) (UniProt Q08050); assay: Inhibition of FOXM1 in human ER-positive MCF7 cells at 8 uM assessed as reduction in FOXM1C expression measured by qRT-PCR method; assay type: cell-based
T1 sequence (whole entry): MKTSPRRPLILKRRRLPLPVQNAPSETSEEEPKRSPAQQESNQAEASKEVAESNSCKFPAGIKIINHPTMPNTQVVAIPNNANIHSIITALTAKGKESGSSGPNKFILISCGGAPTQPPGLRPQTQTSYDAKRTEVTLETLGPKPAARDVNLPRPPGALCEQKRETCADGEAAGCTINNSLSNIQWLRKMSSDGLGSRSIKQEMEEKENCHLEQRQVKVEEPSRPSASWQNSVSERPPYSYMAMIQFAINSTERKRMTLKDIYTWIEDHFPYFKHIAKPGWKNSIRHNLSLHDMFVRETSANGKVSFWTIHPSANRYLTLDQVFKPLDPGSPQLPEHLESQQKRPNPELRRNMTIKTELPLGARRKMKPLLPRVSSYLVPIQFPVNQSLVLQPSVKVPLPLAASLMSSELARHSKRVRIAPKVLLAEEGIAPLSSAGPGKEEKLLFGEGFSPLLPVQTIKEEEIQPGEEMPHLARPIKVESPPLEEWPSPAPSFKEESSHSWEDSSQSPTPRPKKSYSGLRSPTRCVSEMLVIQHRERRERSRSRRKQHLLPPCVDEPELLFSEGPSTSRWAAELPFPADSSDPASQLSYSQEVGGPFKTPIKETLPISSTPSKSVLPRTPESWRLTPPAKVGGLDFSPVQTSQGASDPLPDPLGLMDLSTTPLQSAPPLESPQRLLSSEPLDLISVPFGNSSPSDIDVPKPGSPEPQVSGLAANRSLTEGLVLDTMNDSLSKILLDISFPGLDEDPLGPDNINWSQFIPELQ

[6] = molecular target: T1, Forkhead box protein M1 (Homo sapiens); assay: Inhibition of FOXM1 in human ER-positive MCF7 cells at 8 uM assessed as reduction in AURKB expression measured by qRT-PCR method; assay type: cell-based
[7] = molecular target: T1, Forkhead box protein M1 (Homo sapiens); assay: Inhibition of FOXM1 in human ER-positive MCF7 cells at 8 uM assessed as reduction in CCNB1 expression measured by qRT-PCR method; assay type: cell-based
[8] = molecular target: T1, Forkhead box protein M1 (Homo sapiens); assay: Inhibition of FOXM1 in human ER-positive MCF7 cells at 8 uM assessed as reduction in PLK1 expression measured by qRT-PCR method; assay type: cell-based
[9] = molecular target: T1, Forkhead box protein M1 (Homo sapiens); assay: Inhibition of FOXM1 in human ER-positive MCF7 cells at 8 uM assessed as increase in ATF3 expression measured by qRT-PCR method; assay type: cell-based
[10] = molecular target: T1, Forkhead box protein M1 (Homo sapiens); assay: Inhibition of FOXM1 in human ER-negative DT-22 cells at 8 uM assessed as reduction in FOXM1C expression measured by qRT-PCR method; assay type: cell-based
[11] = molecular target: T1, Forkhead box protein M1 (Homo sapiens); assay: Inhibition of FOXM1 in human ER-negative DT-22 cells at 8 uM assessed as reduction in AURKB expression measured by qRT-PCR method; assay type: cell-based
[12] = molecular target: T1, Forkhead box protein M1 (Homo sapiens); assay: Inhibition of FOXM1 in human ER-negative DT-22 cells at 8 uM assessed as reduction in CCNB1 expression measured by qRT-PCR method; assay type: cell-based
[13] = molecular target: T1, Forkhead box protein M1 (Homo sapiens); assay: Inhibition of FOXM1 in human ER-negative DT-22 cells at 8 uM assessed as reduction in PLK1 expression measured by qRT-PCR method; assay type: cell-based
[14] = molecular target: T1, Forkhead box protein M1 (Homo sapiens); assay: Inhibition of FOXM1 in human ER-negative DT-22 cells at 8 uM assessed as increase in ATF3 expression measured by qRT-PCR method; assay type: cell-based
[15] = AUC in mouse at 20 mg/kg, sc measured by LC-MS/MS analysis; assay type: ADME, organism-based; parameters: dose 20 mg/kg; details: in vivo
[16] = Cmax in mouse at 20 mg/kg, sc measured by LC-MS/MS analysis; assay type: ADME, organism-based; parameters: route subcutaneous, dose 20 mg/kg; details: in vivo
[17] = Half-life in mouse at 20 mg/kg, sc measured by LC-MS/MS analysis; assay type: ADME, organism-based; details: in vivo
DT-22 [18] = assay: Antitumor activity in human DT-22 cells xenografted NSG mouse assessed as reduction in tumor growth at 40 mg/kg, sc administered daily for 4 days followed by 20 mg/kg every third day until day 13 and followed by 10 mg/kg every third day; assay type: functional, organism-based; details: time 4.0 day
DT-22 [19] = assay: Antitumor activity in human DT-22-Luc cells xenografted female NSG mouse assessed as reduction in tumor growth at 20 mg/kg, sc administered daily until day 20 and followed by 10 mg/kg every other day; assay type: functional, organism-based
[20] = Toxicity in human DT-22-Luc cells xenografted female NSG mouse assessed as as effect on body weight at 20 mg/kg, sc administered daily until day 20 and followed by 10 mg/kg every other day; assay type: organism-based; details: in vivo
[21] = molecular target: T1, Forkhead box protein M1 (Homo sapiens); assay: Inhibition of FOXM1 in human ER-positive MCF7 cells at 5 uM assessed as reduction in FOXM1C expression measured by qRT-PCR method; assay type: cell-based
[22] = molecular target: T1, Forkhead box protein M1 (Homo sapiens); assay: Inhibition of FOXM1 in human ER-positive MCF7 cells at 5 uM assessed as reduction in AURKB expression measured by qRT-PCR method; assay type: cell-based
[23] = molecular target: T1, Forkhead box protein M1 (Homo sapiens); assay: Inhibition of FOXM1 in human ER-positive MCF7 cells at 5 uM assessed as reduction in CCNB1 expression measured by qRT-PCR method; assay type: cell-based
[24] = molecular target: T1, Forkhead box protein M1 (Homo sapiens); assay: Inhibition of FOXM1 in human ER-positive MCF7 cells at 5 uM assessed as reduction in PLK1 expression measured by qRT-PCR method; assay type: cell-based
[25] = molecular target: T1, Forkhead box protein M1 (Homo sapiens); assay: Inhibition of FOXM1 in human ER-positive MCF7 cells at 5 uM assessed as increase in ATF3 expression measured by qRT-PCR method; assay type: cell-based
[26] = molecular target: T1, Forkhead box protein M1 (Homo sapiens); assay: Inhibition of FOXM1 in human ER-negative DT-22 cells at 5 uM assessed as reduction in FOXM1C expression measured by qRT-PCR method; assay type: cell-based
[27] = molecular target: T1, Forkhead box protein M1 (Homo sapiens); assay: Inhibition of FOXM1 in human ER-negative DT-22 cells at 5 uM assessed as reduction in AURKB expression measured by qRT-PCR method; assay type: cell-based
[28] = molecular target: T1, Forkhead box protein M1 (Homo sapiens); assay: Inhibition of FOXM1 in human ER-negative DT-22 cells at 5 uM assessed as reduction in CCNB1 expression measured by qRT-PCR method; assay type: cell-based
[29] = molecular target: T1, Forkhead box protein M1 (Homo sapiens); assay: Inhibition of FOXM1 in human ER-negative DT-22 cells at 5 uM assessed as reduction in PLK1 expression measured by qRT-PCR method; assay type: cell-based
[30] = molecular target: T1, Forkhead box protein M1 (Homo sapiens); assay: Inhibition of FOXM1 in human ER-negative DT-22 cells at 5 uM assessed as increase in ATF3 expression measured by qRT-PCR method; assay type: cell-based
DT-22 [31] = assay: Antitumor activity in human DT-22 cells xenografted NSG mouse assessed as reduction in tumor growth at 100 mg/kg, po administered daily for 7 days; assay type: functional, organism-based; details: time 7.0 day
MCF7 = assay: Antitumor activity in human MCF7 cells xenografted ovariectomized NSG mouse assessed as reduction in tumor growth at 100 mg/kg, sc administered daily; assay type: functional, organism-based
[32] = Half-life in female CD-1 mouse at 20 mg/kg, po administered as single dose and measured by LC-MS/MS analysis; assay type: ADME, organism-based; details: in vivo
[33] = AUC (0 to 48 hrs) in female CD-1 mouse at 40 mg/kg, sc administered as single dose and measured by LC-MS/MS analysis; assay type: ADME, organism-based; parameters: time < 48 hr, route subcutaneous, dose 40 mg/kg; details: in vivo
MCF-7/TAMR-1 = assay: Antiproliferative activity against human MCF-7/TAMR-1 cells measured by WST-1 assay; assay type: functional, cell-based
DT-22 [34] = assay: Antitumor activity in human DT-22 cells xenografted NSG mouse assessed as reduction in tumor growth at 5 to 10 mg/kg, sc administered daily until day 21 and then every other day; assay type: functional, organism-based; details: dose 5-10 mg/kg
DT-22 [35] = assay: Antitumor activity in human DT-22 cells xenografted NSG mouse assessed as reduction in total FOXM1 expression at 5 to 10 mg/kg, sc administered daily until day 21 and then every other day; assay type: functional, organism-based; details: dose 5-10 mg/kg
DT-22 [36] = assay: Antitumor activity in human DT-22 cells xenografted NSG mouse assessed as reduction in FOXM1B expression at 5 to 10 mg/kg, sc administered daily until day 21 and then every other day; assay type: functional, organism-based; details: dose 5-10 mg/kg
DT-22 [37] = assay: Antitumor activity in human DT-22 cells xenografted NSG mouse assessed as reduction in FOXM1C expression at 5 to 10 mg/kg, sc administered daily until day 21 and then every other day; assay type: functional, organism-based; details: dose 5-10 mg/kg
DT-22 [38] = assay: Antitumor activity in human DT-22 cells xenografted NSG mouse assessed as reduction in CENPF expression at 5 to 10 mg/kg, sc administered daily until day 21 and then every other day; assay type: functional, organism-based; details: dose 5-10 mg/kg

half-life [2]: 31.5 h
SMILES: C[N+]1(CCCCCCOc2ccc(C(c3ccc(Cl)cc3)=C3C4C[C@H]5C[C@@H](C4)C[C@H]3C5)cc2)CCCC1.[I-]
Activity (DT-22 [19]): Active
Activity [20]: Non-Toxic

half-life [2]: 26.7 h
inhibition [21]: Active
inhibition [22]: Active
inhibition [23]: Active
inhibition [24]: Active
inhibition [25]: Active
inhibition [26]: Active
inhibition [27]: Active
inhibition [28]: Active
inhibition [29]: Active
inhibition [30]: Active
SMILES: Clc1ccc(C(=C2C3CC4CC(C3)CC2C4)c2ccc(OCCCCCCN3CCCC3)cc2)cc1
Activity (DT-22 [31]): Active
Activity (MCF7): Active

AUC(0-t) at 48 h [33]: 150 µM·h
half-life [2]: 36.8 h
SMILES: C[n+]1ccn(CCCCCCOc2ccc(C(=C3C4CC5CC(C4)CC3C5)c3ccc(Cl)cc3)cc2)c1.[I-]

Further lines, the compound ahead of its results:

SMILES: CN1CCN(CCCCCCOc2ccc(C(=C3C4CC5CC(C4)CC3C5)c3ccc(OCCCCCCN4CCN(C)CC4)cc3)cc2)CC1
half-life [1]: 45.6 h

SMILES: CC[N+](C)(CC)CCCCCCOc1ccc(C(c2ccc(OCCCCCC[N+](C)(CC)CC)cc2)=C2C3C[C@H]4C[C@@H](C3)C[C@H]2C4)cc1.[I-].[I-]
half-life [2]: 38.6 h
Activity (DT-22 [3]): Active
Activity [4]: Non-Toxic

SMILES: Nc1c(C(=O)Nc2ccc(F)cc2)sc2nc(-c3cccs3)cc(C(F)(F)F)c12
inhibition [5]: Active
inhibition [6]: Active
inhibition [7]: Active
inhibition [8]: Active
inhibition [9]: Active
inhibition [10]: Active
inhibition [11]: Active
inhibition [12]: Active
inhibition [13]: Active
inhibition [14]: Active
AUC [15]: 1.2 µM·h
Cmax [16]: 40 nM
half-life [17]: 21.8 h

SMILES: C[N+]1(CCCCCCOc2ccc(C(=C3C4CC5CC(C4)CC3C5)c3ccc(OCCCCCC[N+]4(C)CCCC4)cc3)cc2)CCCC1
Activity (DT-22 [18]): Active

SMILES: CCN(CC)CCCCCCOc1ccc(C(c2ccc(OCCCCCCN(CC)CC)cc2)=C2[C@H]3C[C@@H]4C[C@@H](C[C@H]2C4)C3)cc1
half-life [32]: 61.8 h

SMILES: C[N+]1(CCCCCCOc2ccc(C(c3ccc(OCCCCCC[N+]4(C)CCCCC4)cc3)=C3C4C[C@H]5C[C@@H](C4)C[C@H]3C5)cc2)CCCCC1
Activity (DT-22 [18]): Active

SMILES: C[N+]1(CCCCCCOc2ccc(C(c3ccc(OCCCCCC[N+]4(C)CCCCCC4)cc3)=C3C4C[C@H]5C[C@@H](C4)C[C@H]3C5)cc2)CCCCCC1
Activity (MCF-7/TAMR-1): Active
Activity (DT-22 [18]): Active
Activity (DT-22 [34]): Active
Activity (DT-22 [35]): Active
Activity (DT-22 [36]): Active
Activity (DT-22 [37]): Active
Activity (DT-22 [38]): Active
